In brackets after ≈: the same amount, converted by molar mass.
Experiments:
Type in all cases: cell-based
[1] = system: Staph. aureus C-5113; experiment: MIC by agar dilution, Staph. aureus C-5113; settings: Mueller-Hinton agar; for MIC: Staphylococcus aureus, C5113, 17 h, read-out: Minimal Inhibitory Concentration (MIC)
Outline: (§1)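 Agar dilution in Mueller-Hinton agar with two-fold compound dilutions. Each strain is inoculated at 10^6 CFU per ml and incubated at 35°-37° C. for 17±1 hours. Ceftazidime and cefotaxime serve as controls.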

[2] = system: Ps. aeruginosa ATCC 10145; experiment: MIC by agar dilution, Ps. aeruginosa ATCC 10145; settings: Mueller-Hinton agar; for MIC: Pseudomonas aeruginosa, ATCC10145, 17 h, read-out: Minimal Inhibitory Concentration (MIC)
Outline: as §1

[3] = system: E. coli DY-1; experiment: MIC by agar dilution, E. coli DY-1; settings: E. coli DY-1, agar dilution, Mueller-Hinton agar; for MIC: Escherichia coli, DY1, 17 h, read-out: Minimal Inhibitory Concentration (MIC)
Outline: as §1

[4] = system: Staph. aureus C-57; experiment: MIC by agar dilution, Staph. aureus C-57; settings: Mueller-Hinton agar; for MIC: Staphylococcus aureus, C57, 17 h, read-out: Minimal Inhibitory Concentration (MIC)
Outline: as §1

[5] = system: Ent. aerogenes IFO 12979; experiment: MIC by agar dilution, Ent. aerogenes IFO 12979; settings: Mueller-Hinton agar; for MIC: Klebsiella aerogenes, IFO12979, 17 h, read-out: Minimal Inhibitory Concentration (MIC)
Outline: as §1

[6] = system: Prov. stuartii IFO 12930; experiment: MIC by agar dilution, Prov. stuartii IFO 12930; settings: Mueller-Hinton agar; for MIC: Providencia stuartii, IFO12930, 17 h, read-out: Minimal Inhibitory Concentration (MIC)
Outline: as §1

[7] = system: M. morganii DY-1; experiment: MIC by agar dilution, M. morganii DY-1; settings: M. morganii DY-1, agar dilution, Mueller-Hinton agar; for MIC: Morganella morganii, DY1, 17 h, read-out: Minimal Inhibitory Concentration (MIC)
Outline: as §1

[8] = system: Staph. aureus ATCC 6538P; experiment: MIC by agar dilution, Staph. aureus ATCC 6538P; settings: Staph. aureus ATCC 6538P, agar dilution, Mueller-Hinton agar; for MIC: Staphylococcus aureus, ATCC6538P, 17 h, read-out: Minimal Inhibitory Concentration (MIC)
Outline: as §1

[9] = system: E. coli NIHJ JC-2; experiment: MIC by agar dilution, E. coli NIHJ JC-2; settings: E. coli NIHJ JC-2, agar dilution, Mueller-Hinton agar; for MIC: Escherichia coli, NIHJJC2, 17 h, read-out: Minimal Inhibitory Concentration (MIC)
Outline: as §1

[10] = system: Ent. cloacae IFO 13535; experiment: MIC by agar dilution, Ent. cloacae IFO 13535; settings: Ent. cloacae IFO 13535, agar dilution, Mueller-Hinton agar; for MIC: Enterobacter cloacae, IFO13535, 17 h, read-out: Minimal Inhibitory Concentration (MIC)
Outline: as §1

[11] = system: Staph. aureus C-5216; experiment: MIC by agar dilution, Staph. aureus C-5216; settings: Mueller-Hinton agar; for MIC: Staphylococcus aureus, C5216, 17 h, read-out: Minimal Inhibitory Concentration (MIC)
Outline: as §1

[12] = system: S. epidermidis ATCC 12228; experiment: MIC by agar dilution, S. epidermidis ATCC 12228; settings: S. epidermidis ATCC 12228, agar dilution, Mueller-Hinton agar; for MIC: Staphylococcus epidermidis, ATCC12228, 17 h, read-out: Minimal Inhibitory Concentration (MIC)
Outline: as §1

[13] = system: E. coli No. 29; experiment: MIC by agar dilution, E. coli No. 29; settings: E. coli No. 29, agar dilution, Mueller-Hinton agar; for MIC: Escherichia coli, 17 h, read-out: Minimal Inhibitory Concentration (MIC)
Outline: as §1

[14] = system: Staph. aureus Smith; experiment: MIC by agar dilution, Staph. aureus Smith; settings: Mueller-Hinton agar; for MIC: Staphylococcus aureus, 17 h, read-out: Minimal Inhibitory Concentration (MIC)
Outline: as §1

[15] = system: B. subtilis ATCC 6633; experiment: MIC by agar dilution, B. subtilis ATCC 6633; settings: B. subtilis ATCC 6633, agar dilution, Mueller-Hinton agar; for MIC: Bacillus subtilis, ATCC6633, 17 h, read-out: Minimal Inhibitory Concentration (MIC)
Outline: as §1

[16] = system: P. vulgaris NCTC 8313; experiment: MIC by agar dilution, P. vulgaris NCTC 8313; settings: P. vulgaris NCTC 8313, agar dilution, Mueller-Hinton agar; for MIC: Proteus vulgaris, NCTC8313, 17 h, read-out: Minimal Inhibitory Concentration (MIC)
Outline: as §1

[17] = system: K. pneumoniae NCTC 9632; experiment: MIC by agar dilution, K. pneumoniae NCTC 9632; settings: K. pneumoniae NCTC 9632, agar dilution, Mueller-Hinton agar; for MIC: Klebsiella pneumoniae, NCTC9632, 17 h, read-out: Minimal Inhibitory Concentration (MIC)
Outline: as §1

[18] = system: Ps. aeruginosa DY-2; experiment: MIC by agar dilution, Ps. aeruginosa DY-2; settings: Ps. aeruginosa DY-2, agar dilution, Mueller-Hinton agar; for MIC: Pseudomonas aeruginosa, DY2, 17 h, read-out: Minimal Inhibitory Concentration (MIC)
Outline: as §1

[19] = system: Ser. marcescens IFO 12648; experiment: MIC by agar dilution, Ser. marcescens IFO 12648; settings: Ser. marcescens IFO 12648, agar dilution, Mueller-Hinton agar; for MIC: Serratia marcescens, IFO12648, 17 h, read-out: Minimal Inhibitory Concentration (MIC)
Outline: as §1

[20] = system: Ps. aeruginosa NCTC 10490; experiment: MIC by agar dilution, Ps. aeruginosa NCTC 10490; settings: Mueller-Hinton agar; for MIC: Pseudomonas aeruginosa, NCTC10490, 17 h, read-out: Minimal Inhibitory Concentration (MIC)
Outline: as §1

| Compound | MIC [1] [µg/mL] | MIC [2] [µg/mL] | MIC [3] [µg/mL] | MIC [4] [µg/mL] | MIC [5] [µg/mL] | MIC [6] [µg/mL] | MIC [7] [µg/mL] | MIC [8] [µg/mL] | MIC [9] [µg/mL] | MIC [10] [µg/mL] | MIC [11] [µg/mL] | MIC [12] [µg/mL] | MIC [13] [µg/mL] | MIC [14] [µg/mL] | MIC [15] [µg/mL] | MIC [16] [µg/mL] | MIC [17] [µg/mL] | MIC [18] [µg/mL] | MIC [19] [µg/mL] | MIC [20] [µg/mL] | further results |
| --- | --- | --- | --- | --- | --- | --- | --- | --- | --- | --- | --- | --- | --- | --- | --- | --- | --- | --- | --- | --- | --- |
| CC(C)(ON=C(C(=O)NC1C(=O)N2C(C(=O)[O-])=C(C[n+]3ccn4cccc4c3)CSC12)c1csc(N)n1)C(=O)O (stereo not drawn) [Ex. 2, 7-β-[(Z)-2-(2-aminothiazol-4-yl)-2-(2-carboxyprop-2-oxyimino)acetamido]-3-(pyrrolo[1,2-a]pyrazinium-2-yl)methyl-3-cephem-4-carboxylate] | 25 (≈ 42.7 µM) | 0.78 (≈ 1.33 µM) | 0.05 (≈ 0.0854 µM) | 100 (≈ 171 µM) | 0.025 (≈ 0.0427 µM) | 0.025 (≈ 0.0427 µM) | 0.05 (≈ 0.0854 µM) | 3.13 (≈ 5.34 µM) | 0.2 (≈ 0.342 µM) | 3.13 (≈ 5.34 µM) | 12.5 (≈ 21.3 µM) | 1.56 (≈ 2.66 µM) | 0.1 (≈ 0.171 µM) | 12.5 (≈ 21.3 µM) | 3.13 (≈ 5.34 µM) | ≤ 0.006 | 0.2 (≈ 0.342 µM) | 6.25 (≈ 10.7 µM) | 0.1 (≈ 0.171 µM) | 0.39 (≈ 0.666 µM) | – |
| CO/N=C(\C(=O)N[C@@H]1C(=O)N2C(C(=O)[O-])=C(C[n+]3ccn4c(SCCO)ccc4c3)CS[C@H]12)c1nc(N)sc1Cl [Ex. 52, 7-β-[(Z)-2-(2-amino-5-chlorothiazol-4-yl)-2-methoxyiminoacetamido]-3-[6-(2-hydroxyethylthio)pyrrolo[1,2-a]-pyrazinium-2-yl]methyl-3-cephem-4-carboxylate] | 1.56 (≈ 2.5 µM) | 1.56 (≈ 2.5 µM) | 0.025 (≈ 0.0401 µM) | 6.25 (≈ 10 µM) | 0.1 (≈ 0.16 µM) | 0.025 (≈ 0.0401 µM) | 0.2 (≈ 0.32 µM) | 0.2 (≈ 0.32 µM) | 0.2 (≈ 0.32 µM) | 0.78 (≈ 1.25 µM) | 0.78 (≈ 1.25 µM) | 0.1 (≈ 0.16 µM) | 0.1 (≈ 0.16 µM) | 1.56 (≈ 2.5 µM) | 0.1 (≈ 0.16 µM) | 0.012 (≈ 0.0192 µM) | 0.1 (≈ 0.16 µM) | 12.5 (≈ 20 µM) | 0.2 (≈ 0.32 µM) | 1.56 (≈ 2.5 µM) | – |
| CC(C)(ON=C(C(=O)NC1C(=O)N2C(C(=O)[O-])=C(C[n+]3ccn4c(CO)ccc4c3)CSC12)c1csc(N)n1)C(=O)O (stereo not drawn) [Ex. 24, 7-β-[(Z)-2-(2-aminothiazol-4-yl)-2-(2-carboxyprop-2-oxyimino)acetamido]-3-(6hydroxymethylpyrrolo[1,2-a]pyrazinium-2-yl)methyl-3-cephem-4-carboxylate] | 1.56 (≈ 2.53 µM) | 12.5 (≈ 20.3 µM) | 0.78 (≈ 1.27 µM) | 100 (≈ 162 µM) | 0.2 (≈ 0.325 µM) | 0.39 (≈ 0.633 µM) | 0.78 (≈ 1.27 µM) | 0.39 (≈ 0.633 µM) | 3.13 (≈ 5.08 µM) | 6.25 (≈ 10.2 µM) | 6.25 (≈ 10.2 µM) | 0.39 (≈ 0.633 µM) | 1.56 (≈ 2.53 µM) | 3.13 (≈ 5.08 µM) | 1.56 (≈ 2.53 µM) | 0.05 (≈ 0.0812 µM) | 0.78 (≈ 1.27 µM) | 25 (≈ 40.6 µM) | 0.39 (≈ 0.633 µM) | 6.25 (≈ 10.2 µM) | – |
| CCO/N=C(\C(=O)N[C@@H]1C(=O)N2C(C(=O)[O-])=C(C[n+]3ccn4c(C(N)=O)ccc4c3C)CS[C@H]12)c1csc(N)n1 [Ex. 44, 7-β-[(Z)-2-(2-aminothiazol-4-yl)-2-ethoxyiminoacetamido]-3-(6-carbamoyl-1-methylpyrrolo[1,2-a]pyrazinium-2-yl)methyl-3-cephem-4-carboxylate] | – | – | – | – | – | – | – | – | – | – | – | – | – | – | – | – | – | – | – | – | Minimal Inhibitory Concentration (MIC) [1]: 1.560 µg/mL; Minimal Inhibitory Concentration (MIC) [2]: 3.130 µg/mL; Minimal Inhibitory Concentration (MIC) [3]: 0.025 µg/mL; Minimal Inhibitory Concentration (MIC) [4]: 100.000 µg/mL; Minimal Inhibitory Concentration (MIC) [5]: 0.050 µg/mL; Minimal Inhibitory Concentration (MIC) [6]: 0.012 µg/mL; Minimal Inhibitory Concentration (MIC) [7]: 0.100 µg/mL; Minimal Inhibitory Concentration (MIC) [8]: 0.200 µg/mL; Minimal Inhibitory Concentration (MIC) [9]: 0.050 µg/mL; Minimal Inhibitory Concentration (MIC) [10]: 0.100 µg/mL; Minimal Inhibitory Concentration (MIC) [11]: 1.560 µg/mL; Minimal Inhibitory Concentration (MIC) [12]: 0.100 µg/mL; Minimal Inhibitory Concentration (MIC) [13]: 0.025 µg/mL; Minimal Inhibitory Concentration (MIC) [14]: 0.780 µg/mL; Minimal Inhibitory Concentration (MIC) [15]: 0.390 µg/mL; Minimal Inhibitory Concentration (MIC) [16]: 0.050 µg/mL; Minimal Inhibitory Concentration (MIC) [17]: 0.050 µg/mL; Minimal Inhibitory Concentration (MIC) [18]: 6.250 µg/mL; Minimal Inhibitory Concentration (MIC) [19]: 0.050 µg/mL; Minimal Inhibitory Concentration (MIC) [20]: 0.780 µg/mL |
| CON=C(C(=O)NC1C(=O)N2C(C(=O)[O-])=C(C[n+]3ccn4ccc(CO)c4c3)CSC12)c1csc(N)n1 (stereo not drawn) [Ex. 30, 7-β-[(Z)-2-(2-aminothiazol-4-yl)2-methoxyiminoacetamido]-3-(8-hydroxymethylpyrrolo[1,2-a]pyrazinium-2-yl)methyl-3-cephem-4-carboxylate] | 3.13 (≈ 5.76 µM) | 0.39 (≈ 0.717 µM) | ≤ 0.006 | 50 (≈ 92 µM) | ≤ 0.006 | ≤ 0.006 | 0.012 (≈ 0.0221 µM) | 0.2 (≈ 0.368 µM) | ≤ 0.006 | 0.05 (≈ 0.092 µM) | 0.78 (≈ 1.43 µM) | 0.05 (≈ 0.092 µM) | ≤ 0.006 | 0.78 (≈ 1.43 µM) | 0.1 (≈ 0.184 µM) | 0.012 (≈ 0.0221 µM) | 0.012 (≈ 0.0221 µM) | 3.13 (≈ 5.76 µM) | 0.012 (≈ 0.0221 µM) | 0.1 (≈ 0.184 µM) | – |

— US5593984A, “Cephalosporin derivatives” (Yuhan Corporation, priority 1992, dated 1997)
